Reference: patent publication US6232347A, “Treatment of osteoarthritis” (Knoll Pharmaceutical Company, priority 2000, dated 2001)

Tested on: reuptake of all three monoamines
Test: monoamine reuptake inhibition profile (summary in words of Table 1)
Format: biochemical, rat
Settings: with reference to Table 1, sibutramine through its pharmacologically active metabolites

Compound: CC(C)CC(N(C)C)C1(c2ccc(Cl)cc2)CCC1 (stereo not shown) [Sibutramine, N,N-dimethyl-1-[1-(4-chlorophenyl)cyclobutyl]-3-methylbutylamine]
- inhibition of monoamine reuptake / selectivity profile: inhibits the reuptake of all three monoamines
